The target in series [1] is T1, Cytochrome P450 1A2 (Homo sapiens, UniProt P05177).
T1 sequence (P05177 whole entry): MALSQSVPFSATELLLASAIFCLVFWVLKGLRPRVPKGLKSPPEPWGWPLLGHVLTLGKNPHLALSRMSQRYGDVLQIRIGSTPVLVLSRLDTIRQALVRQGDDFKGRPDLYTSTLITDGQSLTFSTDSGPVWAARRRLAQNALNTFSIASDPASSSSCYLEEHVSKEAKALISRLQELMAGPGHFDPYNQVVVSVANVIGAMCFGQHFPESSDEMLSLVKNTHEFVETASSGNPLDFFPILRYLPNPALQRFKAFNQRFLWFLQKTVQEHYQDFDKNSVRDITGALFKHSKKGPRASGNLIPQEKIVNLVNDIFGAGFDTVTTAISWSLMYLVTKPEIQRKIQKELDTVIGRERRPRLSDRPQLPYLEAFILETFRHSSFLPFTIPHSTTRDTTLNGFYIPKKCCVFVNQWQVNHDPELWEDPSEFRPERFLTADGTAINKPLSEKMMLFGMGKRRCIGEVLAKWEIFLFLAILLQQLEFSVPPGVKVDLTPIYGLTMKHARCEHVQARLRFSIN
Briefly: Drug metabolism assessed as recombinant CYP1A2 (unknown origin)-mediated oxidation incubated for 24 hrs in presence of NADP+ by LC-MS analysis. It counts as ADME. The settings on record: recombinant enzyme.

A short description of series [2]: Drug metabolism assessed as intact compound incubated for 24 hrs in presence of NADP+ and absence of recombinant CYP1A2 by LC-MS analysis.
Series [3] concerns the target T2, Cyclic AMP-dependent transcription factor ATF-6 alpha (Rattus norvegicus) (UniProt G3V909).
T2 sequence (whole entry): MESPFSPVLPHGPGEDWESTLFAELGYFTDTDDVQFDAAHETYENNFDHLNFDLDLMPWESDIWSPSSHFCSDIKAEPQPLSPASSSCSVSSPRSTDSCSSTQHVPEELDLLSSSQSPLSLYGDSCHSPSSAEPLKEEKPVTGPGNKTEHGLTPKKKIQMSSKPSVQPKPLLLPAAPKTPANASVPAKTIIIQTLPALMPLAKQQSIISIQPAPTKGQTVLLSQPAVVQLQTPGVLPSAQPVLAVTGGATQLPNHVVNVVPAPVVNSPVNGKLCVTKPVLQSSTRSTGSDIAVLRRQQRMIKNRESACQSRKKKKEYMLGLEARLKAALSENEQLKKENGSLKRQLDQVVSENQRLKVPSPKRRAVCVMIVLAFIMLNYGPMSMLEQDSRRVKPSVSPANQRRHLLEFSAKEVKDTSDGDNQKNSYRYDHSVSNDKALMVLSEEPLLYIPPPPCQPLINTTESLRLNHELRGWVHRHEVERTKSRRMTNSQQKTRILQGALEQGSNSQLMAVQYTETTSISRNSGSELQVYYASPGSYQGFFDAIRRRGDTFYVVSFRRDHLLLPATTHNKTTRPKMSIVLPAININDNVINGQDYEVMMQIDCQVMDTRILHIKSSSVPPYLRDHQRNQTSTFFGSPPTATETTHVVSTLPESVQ
Briefly: Activation of ATF6 in NRVM isolated from Sprague-Dawley rat assessed as increase in GRP78 expression at 10 uM measured after 16 hrs by SYBR green dye-based qRT-PCR analysis. In general terms: In qPCR the cycle at which signal appears reflects the starting amount.

Series [4] has as its target T2, Cyclic AMP-dependent transcription factor ATF-6 alpha (Rattus norvegicus). Briefly: Activation of ATF6 in NRVM isolated from Sprague-Dawley rat assessed as increase in catalase expression at 10 uM measured after 16 hrs by SYBR green dye-based qRT-PCR analysis.
The species named for a further series is Rattus norvegicus. Briefly: Cytoprotection against hydrogen peroxide-induced toxicity in NRVM isolated from Sprague-Dawley rat assessed as increase in cell viability at 10 uM pretreated for 24 hrs followed by hydrogen peroxide challenge measured after 8 hrs by MTT assay. It counts as functional. On the technique in general: Tetrazolium dyes change colour on reduction, which living cells bring about.

Series [5] has as its target T2, Cyclic AMP-dependent transcription factor ATF-6 alpha (Rattus norvegicus). Briefly: Activation of ATF6 in simulated-ischemia-reperfusion NRVM isolated from Sprague-Dawley rat assessed as increase in cell viability by measuring media LDH content at 10 uM followed by ischemia simulation for 8 hrs and subsequent reperfusion and compound treatment for 24 hrs by LDH assay.

Series [6] has the same target. Briefly: Activation of ATF6 in simulated-ischemia-reperfusion NRVM isolated from Sprague-Dawley rat assessed as increase in cell viability by measuring media LDH content at 10 uM followed by ischemia simulation for 8 hrs and subsequent reperfusion and compound treatment for 24 hrs under normoxia condition by calcein-AM green dye based fluorescence microscopy.
Series [7] shares this target. Briefly: Activation of ATF6 in NRVM isolated from Sprague-Dawley rat assessed as increase in catalase expression at 10 uM using compound pre-activated with hydrogen peroxide for 8 hrs prior to NRVM treatment and measured after 16 hrs by SYBR green dye-based qRT-PCR analysis.
For series [8] the target is unchanged. Briefly: Activation of ATF6 in NRVM isolated from Sprague-Dawley rat assessed as increase in GRP78 expression at 10 uM using compound pre-activated with hydrogen peroxide for 8 hrs prior to NRVM treatment and measured after 16 hrs by SYBR green dye-based qRT-PCR analysis.
The nature of series [9]: Stability of compound in HBS buffer at 1 mM at pH 7.3 and 37 degree C by HPLC or LC-MS analysis. It counts as physicochemical. The following applies: pH 7.3, 1000 µM.
The nature of series [10]: Drug degradation in HBS buffer assessed as half life at 1 mM at pH 7.3 and 37 degree C by HPLC or LC-MS analysis. Format: physicochemical.
Series [11] concerns the target T1, Cytochrome P450 1A2. Briefly: Substrate activity at recombinant CYP1A2 (unknown origin) assessed as [4-[[4-methyl-2-(3-phenylpropanoylamino)phenoxy]methyl]phenyl]boronic acid formation incubated for 24 hrs in presence of NADP+ by LC-MS analysis. Format: ADME. The following applies: recombinant enzyme.

The text below walks through data of ChEMBL document CHEMBL4342479, “Reactive Oxygen Species (ROS)-Activatable Prodrug for Selective Activation of ATF6 after Ischemia/Reperfusion Injury” (ACS Med Chem Lett, 2020).

Calls of active or inactive are those of the source.

On to `Cc1ccc(O)c(NC(=O)CCc2ccccc2)c1`, for which the Drug metabolism result is “Metabolite_Detected” on Cytochrome P450 1A2 [1] and “Metabolite not detected” in series [2]. For the same compound, the result (in [3]; in series [4]; in the series listed under Rattus norvegicus; in series [5]; in [6]) was Active.
Consider `Cc1ccc(OCCc2ccc(B3OC(C)(C)C(C)(C)O3)cc2)c(NC(=O)CCc2ccccc2)c1`, for which the result in series [7] and in [8] was inactive.
As a reminder, the half-life is the time needed for the level to fall by half in the phase considered. In the case of `Cc1ccc(OCc2ccc(B3OC(C)(C)C(C)(C)O3)cc2)c(NC(=O)CCc2ccccc2)c1`, the result (in series [7]; in [8]; in the series listed under Rattus norvegicus; in [5]; in series [6]) was Active. Moreover, in [9], the Stability result was “Stable”. In addition, the half-life at 1000 µM in series [10] is 25.8 days. At Cytochrome P450 1A2 [11], the Drug metabolism result is reported as “Metabolite_Notdetected”.
